Results published in ChEMBL document CHEMBL5390237, “Discovery of Selective Histone Deacetylase 1 and 2 Inhibitors: Screening of a Focused Library Constructed by Click Chemistry, Kinetic Binding Analysis, and Biological Evaluation” (J Med Chem, 2023).
Activity calls are given as the source filed them. The calls are words filed in the database; no cut-off is given here.

Legend:
Histone deacetylase 1 = Histone deacetylase 1 (Homo sapiens, UniProt Q13547); test: Inhibition of full-length recombinant human C-terminal GST tagged HDAC1 expressed in Sf9 insect cells using aminoluciferin peptide substrate at 10 to 100 nM preincubated for 3 hrs followed by substrate addition and measured after 30 mins by HDAC-Glo I/II chemiluminescence assay; conditions: dose 10-100 nM, time 3.5 hrs
Chain of Histone deacetylase 1 (Q13547 whole entry): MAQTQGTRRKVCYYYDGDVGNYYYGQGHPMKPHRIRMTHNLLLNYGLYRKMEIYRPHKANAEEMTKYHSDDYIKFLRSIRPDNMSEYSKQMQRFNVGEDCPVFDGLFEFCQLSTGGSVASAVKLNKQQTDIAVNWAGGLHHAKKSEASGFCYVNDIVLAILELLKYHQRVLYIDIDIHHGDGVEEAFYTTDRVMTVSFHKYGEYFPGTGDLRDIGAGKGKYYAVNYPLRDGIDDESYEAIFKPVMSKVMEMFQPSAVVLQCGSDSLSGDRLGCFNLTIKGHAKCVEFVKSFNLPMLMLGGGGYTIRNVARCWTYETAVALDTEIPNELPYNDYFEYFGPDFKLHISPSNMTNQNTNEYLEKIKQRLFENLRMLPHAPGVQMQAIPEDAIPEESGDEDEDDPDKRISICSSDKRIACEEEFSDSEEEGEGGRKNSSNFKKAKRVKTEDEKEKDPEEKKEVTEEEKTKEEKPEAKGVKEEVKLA

Histone deacetylase 2 [1] = molecular target: T1, Histone deacetylase 2 (Homo sapiens, UniProt Q92769); test: Inhibition of full-length recombinant human C-terminal GST tagged HDAC2 expressed in Sf9 insect cells using aminoluciferin peptide substrate preincubated for 3 hrs followed by substrate addition and measured after 30 mins by HDAC-Glo I/II chemiluminescence assay; type: cell-based
T1 sequence (Q92769 whole entry, the tested form may be a part): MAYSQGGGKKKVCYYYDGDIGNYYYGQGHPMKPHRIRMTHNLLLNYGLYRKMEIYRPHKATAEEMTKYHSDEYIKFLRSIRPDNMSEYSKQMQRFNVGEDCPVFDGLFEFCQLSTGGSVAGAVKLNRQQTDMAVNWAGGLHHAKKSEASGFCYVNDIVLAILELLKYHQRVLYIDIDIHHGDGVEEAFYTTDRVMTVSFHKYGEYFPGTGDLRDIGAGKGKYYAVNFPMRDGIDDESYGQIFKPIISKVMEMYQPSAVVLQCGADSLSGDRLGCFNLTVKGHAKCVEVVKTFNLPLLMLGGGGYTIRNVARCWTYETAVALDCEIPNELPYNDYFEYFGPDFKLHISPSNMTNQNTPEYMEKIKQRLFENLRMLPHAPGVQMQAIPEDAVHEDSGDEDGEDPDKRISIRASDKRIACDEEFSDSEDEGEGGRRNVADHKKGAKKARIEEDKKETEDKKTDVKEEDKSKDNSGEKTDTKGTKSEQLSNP

[2] = molecular target: Histone deacetylase 3/NCoR1 (Homo sapiens, UniProt O15379); test: Inhibition of recombinant human HDAC3/human GST-tagged NCOR1 (397 to 503 residues) using K(Ac)382 peptide substrate preincubated for 3 hrs followed by substrate addition and measured after 30 mins by HDAC-Glo I/II chemiluminescence assay; type: protein-complex assay
Chain of Histone deacetylase 3/NCoR1 (O15379 whole entry, the tested form may be a part): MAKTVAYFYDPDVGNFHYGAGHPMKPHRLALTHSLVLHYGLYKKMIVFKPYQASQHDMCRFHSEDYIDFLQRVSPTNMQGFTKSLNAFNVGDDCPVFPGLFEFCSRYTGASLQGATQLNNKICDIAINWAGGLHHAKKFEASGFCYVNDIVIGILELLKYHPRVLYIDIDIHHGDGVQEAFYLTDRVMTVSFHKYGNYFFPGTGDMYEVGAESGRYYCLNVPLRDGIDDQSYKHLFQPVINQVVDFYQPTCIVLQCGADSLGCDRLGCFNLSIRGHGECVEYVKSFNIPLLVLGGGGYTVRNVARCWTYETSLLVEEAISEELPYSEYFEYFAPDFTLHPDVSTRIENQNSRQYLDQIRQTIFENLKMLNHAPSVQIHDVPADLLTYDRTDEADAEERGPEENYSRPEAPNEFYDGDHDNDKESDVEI
Chain of Histone deacetylase 3/NCoR1 (O75376 whole entry, further chain, the tested form may be a part): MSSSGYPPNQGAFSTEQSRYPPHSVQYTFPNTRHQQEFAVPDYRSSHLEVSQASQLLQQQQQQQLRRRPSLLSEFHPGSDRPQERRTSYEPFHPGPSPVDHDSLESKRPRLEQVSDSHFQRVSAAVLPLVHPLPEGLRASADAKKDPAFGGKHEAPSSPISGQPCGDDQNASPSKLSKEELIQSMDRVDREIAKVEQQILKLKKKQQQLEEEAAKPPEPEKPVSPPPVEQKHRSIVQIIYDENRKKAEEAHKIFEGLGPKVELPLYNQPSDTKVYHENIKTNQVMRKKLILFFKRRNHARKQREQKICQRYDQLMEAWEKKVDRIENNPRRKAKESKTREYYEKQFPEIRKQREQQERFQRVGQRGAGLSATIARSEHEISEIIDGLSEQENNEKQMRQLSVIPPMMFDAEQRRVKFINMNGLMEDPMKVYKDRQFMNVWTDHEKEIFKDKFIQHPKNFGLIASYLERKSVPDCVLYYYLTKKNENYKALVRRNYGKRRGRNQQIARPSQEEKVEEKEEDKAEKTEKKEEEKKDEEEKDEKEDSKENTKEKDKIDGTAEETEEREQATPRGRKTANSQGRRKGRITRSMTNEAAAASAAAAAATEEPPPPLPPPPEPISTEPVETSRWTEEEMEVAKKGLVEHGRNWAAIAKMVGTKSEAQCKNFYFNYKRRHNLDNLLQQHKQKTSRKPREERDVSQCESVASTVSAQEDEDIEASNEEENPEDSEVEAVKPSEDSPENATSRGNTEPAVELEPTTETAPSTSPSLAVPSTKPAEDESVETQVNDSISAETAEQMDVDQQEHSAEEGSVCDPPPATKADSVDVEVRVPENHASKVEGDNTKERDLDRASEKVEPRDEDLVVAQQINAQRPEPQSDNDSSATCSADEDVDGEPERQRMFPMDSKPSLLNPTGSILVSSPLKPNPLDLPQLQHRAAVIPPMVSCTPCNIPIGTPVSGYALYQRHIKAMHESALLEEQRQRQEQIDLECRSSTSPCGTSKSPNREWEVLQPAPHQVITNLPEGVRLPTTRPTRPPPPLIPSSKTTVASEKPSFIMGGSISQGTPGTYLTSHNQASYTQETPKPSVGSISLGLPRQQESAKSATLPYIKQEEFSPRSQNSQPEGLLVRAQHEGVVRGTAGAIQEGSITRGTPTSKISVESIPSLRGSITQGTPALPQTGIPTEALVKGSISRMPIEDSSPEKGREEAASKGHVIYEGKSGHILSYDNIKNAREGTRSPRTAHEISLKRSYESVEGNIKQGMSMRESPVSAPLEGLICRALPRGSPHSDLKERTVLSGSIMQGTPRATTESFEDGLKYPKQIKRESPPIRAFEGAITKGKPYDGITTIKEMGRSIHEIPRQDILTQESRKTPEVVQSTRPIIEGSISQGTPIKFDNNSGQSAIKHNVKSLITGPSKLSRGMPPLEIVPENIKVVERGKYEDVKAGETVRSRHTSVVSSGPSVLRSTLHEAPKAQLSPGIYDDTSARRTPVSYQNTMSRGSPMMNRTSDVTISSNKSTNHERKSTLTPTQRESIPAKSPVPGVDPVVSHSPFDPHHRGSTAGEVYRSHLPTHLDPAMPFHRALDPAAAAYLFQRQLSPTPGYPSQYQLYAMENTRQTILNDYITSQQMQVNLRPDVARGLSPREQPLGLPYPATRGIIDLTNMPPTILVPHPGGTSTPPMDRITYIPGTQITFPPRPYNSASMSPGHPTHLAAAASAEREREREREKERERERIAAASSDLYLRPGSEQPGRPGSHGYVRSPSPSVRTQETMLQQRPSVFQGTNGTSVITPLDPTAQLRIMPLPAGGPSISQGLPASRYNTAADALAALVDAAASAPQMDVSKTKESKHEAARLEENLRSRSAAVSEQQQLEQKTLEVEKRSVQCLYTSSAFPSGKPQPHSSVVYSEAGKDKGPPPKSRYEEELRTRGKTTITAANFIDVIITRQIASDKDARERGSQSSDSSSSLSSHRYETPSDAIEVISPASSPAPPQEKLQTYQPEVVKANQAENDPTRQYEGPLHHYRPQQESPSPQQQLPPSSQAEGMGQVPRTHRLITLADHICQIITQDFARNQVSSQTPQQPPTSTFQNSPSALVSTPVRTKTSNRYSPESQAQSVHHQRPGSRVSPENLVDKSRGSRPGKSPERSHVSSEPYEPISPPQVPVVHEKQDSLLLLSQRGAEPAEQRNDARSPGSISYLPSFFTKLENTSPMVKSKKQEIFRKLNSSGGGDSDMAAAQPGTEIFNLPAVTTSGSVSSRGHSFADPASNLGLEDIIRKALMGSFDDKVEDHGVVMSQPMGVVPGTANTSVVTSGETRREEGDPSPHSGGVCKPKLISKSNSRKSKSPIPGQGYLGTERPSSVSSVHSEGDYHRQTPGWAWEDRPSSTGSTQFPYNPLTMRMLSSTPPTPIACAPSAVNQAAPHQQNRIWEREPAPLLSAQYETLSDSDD

[3] = molecular target: T2, Histone deacetylase 7 (Homo sapiens) (UniProt Q8WUI4); test: Inhibition of recombinant human HDAC7 using fluorogenic substrate preincubated for 3 hrs followed by substrate addition and measured after 30 mins by fluorescence analysis; conditions: time 3.5 hrs
T2 sequence (whole entry): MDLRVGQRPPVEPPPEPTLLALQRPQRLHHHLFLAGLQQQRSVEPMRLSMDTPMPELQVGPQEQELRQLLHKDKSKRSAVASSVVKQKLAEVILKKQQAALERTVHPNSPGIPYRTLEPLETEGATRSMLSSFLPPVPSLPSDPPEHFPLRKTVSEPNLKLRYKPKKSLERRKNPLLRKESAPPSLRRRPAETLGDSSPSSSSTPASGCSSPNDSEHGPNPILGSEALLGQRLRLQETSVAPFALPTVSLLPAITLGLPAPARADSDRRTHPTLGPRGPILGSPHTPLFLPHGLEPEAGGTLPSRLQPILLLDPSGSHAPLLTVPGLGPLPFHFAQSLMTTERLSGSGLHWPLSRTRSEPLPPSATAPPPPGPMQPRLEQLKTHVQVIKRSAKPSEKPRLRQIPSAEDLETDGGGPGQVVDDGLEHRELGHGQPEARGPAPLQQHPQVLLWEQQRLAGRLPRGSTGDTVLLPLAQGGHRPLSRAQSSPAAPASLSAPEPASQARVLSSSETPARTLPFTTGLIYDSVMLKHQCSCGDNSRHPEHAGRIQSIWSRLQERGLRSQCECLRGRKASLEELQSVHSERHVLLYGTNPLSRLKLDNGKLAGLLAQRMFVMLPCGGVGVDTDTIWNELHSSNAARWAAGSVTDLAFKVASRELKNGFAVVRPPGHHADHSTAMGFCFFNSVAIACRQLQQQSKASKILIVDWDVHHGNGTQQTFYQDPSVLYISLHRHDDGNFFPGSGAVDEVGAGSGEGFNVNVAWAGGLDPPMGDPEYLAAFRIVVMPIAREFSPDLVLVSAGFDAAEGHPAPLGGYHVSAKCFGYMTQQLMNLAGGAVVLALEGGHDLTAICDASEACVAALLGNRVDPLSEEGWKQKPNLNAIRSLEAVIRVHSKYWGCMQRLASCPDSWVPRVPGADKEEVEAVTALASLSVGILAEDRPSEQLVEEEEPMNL

[4] = molecular target: Histone deacetylase 9 (Homo sapiens) (UniProt Q9UKV0); test: Inhibition of recombinant human HDAC9 using fluorogenic substrate preincubated for 3 hrs followed by substrate addition and measured after 30 mins by fluorescence analysis; conditions: time 3.5 hrs
Chain of Histone deacetylase 9 (Homo sapiens) (Q9UKV0 whole entry): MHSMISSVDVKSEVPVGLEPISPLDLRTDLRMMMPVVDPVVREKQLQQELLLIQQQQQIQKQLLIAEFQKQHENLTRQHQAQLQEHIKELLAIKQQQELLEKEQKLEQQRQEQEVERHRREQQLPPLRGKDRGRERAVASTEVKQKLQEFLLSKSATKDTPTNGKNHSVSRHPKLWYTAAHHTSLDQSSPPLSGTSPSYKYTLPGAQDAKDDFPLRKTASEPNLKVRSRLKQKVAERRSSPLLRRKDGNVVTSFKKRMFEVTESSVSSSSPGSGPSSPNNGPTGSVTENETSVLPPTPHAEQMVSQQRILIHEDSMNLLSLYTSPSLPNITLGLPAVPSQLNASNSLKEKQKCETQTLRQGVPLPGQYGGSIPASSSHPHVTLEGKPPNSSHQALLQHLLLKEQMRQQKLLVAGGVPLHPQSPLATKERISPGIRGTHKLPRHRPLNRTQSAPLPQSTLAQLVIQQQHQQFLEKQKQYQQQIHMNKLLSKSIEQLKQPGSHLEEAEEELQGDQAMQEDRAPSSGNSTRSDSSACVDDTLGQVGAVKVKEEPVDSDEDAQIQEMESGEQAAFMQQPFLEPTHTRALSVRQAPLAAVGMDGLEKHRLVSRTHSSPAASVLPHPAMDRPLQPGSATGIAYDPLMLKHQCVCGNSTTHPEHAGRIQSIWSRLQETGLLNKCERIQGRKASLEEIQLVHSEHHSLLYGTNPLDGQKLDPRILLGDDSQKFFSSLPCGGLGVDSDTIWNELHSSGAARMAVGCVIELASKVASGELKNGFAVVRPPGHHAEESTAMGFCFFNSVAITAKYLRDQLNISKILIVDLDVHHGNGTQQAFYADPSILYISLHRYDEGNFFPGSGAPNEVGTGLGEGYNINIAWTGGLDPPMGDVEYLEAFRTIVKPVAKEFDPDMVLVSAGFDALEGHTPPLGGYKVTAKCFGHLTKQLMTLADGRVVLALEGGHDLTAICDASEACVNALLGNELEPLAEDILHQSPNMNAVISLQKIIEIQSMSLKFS

MCF7 [5] = test: Upregulation of DDIT4 gene expression in human MCF7 cells at 2 uM incubated for 24 hrs by RT-qPCR analysis; type: functional, cell-based
MCF7 [6] = test: Downregulation of E2F7 gene expression in human MCF7 cells at 2 uM incubated for 24 hrs by microarray analysis; type: functional, cell-based
Histone deacetylase 2 [7] = molecular target: T1, Histone deacetylase 2; conditions: Sf9, time 60.0 min
Histone deacetylase 2 [8] = molecular target: T1, Histone deacetylase 2; conditions: Sf9, time 60.0 min; remark: listed apart in the source
[9] = molecular target: Histone deacetylase (Homo sapiens) (UniProt Q13547+O15379+Q9UBN7+Q92769+Q9UQL6+Q8WUI4+Q9BY41+Q96DB2+P56524+Q9UKV0+Q969S8); conditions: MCF7, dose 10.0 µM, time <= 48.0 hrs
Histone deacetylase 2 [10] = molecular target: T1, Histone deacetylase 2; test: Inhibition of full-length recombinant human C-terminal GST tagged HDAC2 expressed in Sf9 insect cells assessed as second order […] rate constant (k2) using Ac-LGK(Ac)-AMC substrate and measured for 60 mins at 2 mins interval by fluorescence analysis
Histone deacetylase 2 [11] = molecular target: T1, Histone deacetylase 2; test: Inhibition of full-length recombinant human C-terminal GST tagged HDAC2 expressed in Sf9 insect cells assessed as second order dissociation rate constant (k-2) using Ac-LGK(Ac)-AMC substrate and measured for 60 mins at 2 mins interval by fluorescence analysis
N2a = test: Induction of neurite outgrowth in mouse Neuro2a cells assessed as percentage of neurite-bearing cells at 20 to 2000 nM incubated for 48 hrs by microscopy; type: functional, cell-based; conditions: dose 20-2000 nM
Mus musculus = test: Neuroprotective activity in BALB/c mouse assessed as increase in spine density in granule neuron dendrites at 1 uM,SCi administered through osmotic minipumps incubated for 48 hrs by bright-field microscopy; type: functional, organism-based

Row | SMILES | inhibition (Histone deacetylase 1) | IC50 (Histone deacetylase 2 [1]) | IC50 [2] | inhibition [3] | inhibition [4] | Activity (MCF7 [5]) | Activity (MCF7 [6]) | ka (Histone deacetylase 2 [7]) | Kdiss (Histone deacetylase 2 [8]) | TDI [9] | ka (Histone deacetylase 2 [10]) | Kdiss (Histone deacetylase 2 [11]) | Activity (N2a) | Activity (Mus musculus)
1 | Nc1ccc(-c2cccs2)cc1NC(=O)c1ccc(-c2cn(C[S+]([O-])c3ccccc3)nn2)cc1 (configuration not stated) | Active | 19 nM | > 10 µM | inactive | inactive | Active | Active | 0.32 µM⁻¹ min⁻¹ | 0.007 min⁻¹ | Active | – | – | – | –
2 | Nc1ccc(-c2cccs2)cc1NC(=O)c1ccc(-c2cn(CS(=O)(=O)c3ccccc3)nn2)cc1 | Active | 68 nM | > 10 µM | inactive | inactive | Active | Active | – | – | Active | 0.041 µM⁻¹ min⁻¹ | 0.002 min⁻¹ | Active | Active
3 | Nc1ccc(-c2cccs2)cc1NC(=O)c1ccc(-c2cn(CCc3ccccn3)nn2)cc1 | Active | 17 nM | > 10 µM | inactive | inactive | Active | Active | 0.53 µM⁻¹ min⁻¹ | 0.005 min⁻¹ | Active | – | – | – | –
